Values after ≈ are worked out from the molar mass of the structure shown. Structures can show the parent of a compound that is named as a salt. Where a SMILES comes first, the peptide text is derived from it.
Assays:
[1] = tested on: MRSA (vancomycin hetero-non-susceptible) MU3; test: microbe, parasite or virus in culture; format: cell-based, Staphylococcus aureus
Experimental: (§1) To determine whether the antibacterial activity of [R4W4] is bacteriostatic or bactericidal against clinical isolates of multidrug-resistant bacterial isolates, MIC and MBC were determined using the microbroth dilution method. Bacteriostatic activity was defined as a ratio of the MBC/MIC greater than four and bactericidal activity as MBC/MIC ratio ≤ 4 [33]. We added aliquots of test samples (256 μg/mL concentration of [R4W4] or vancomycin as a control prepared in TSB) to the first well of microplates. MHB media was added to the remaining wells. Two-fold serial dilutions were performed, starting with the highest drug concentration in well 1, and the dilution process continued. A bacterial aliquot of 1/150 dilution was prepared with a 0.5 McFarland standard solution from an overnight culture of the tested bacteria isolate. Bacteria were added to the microplate and placed into wells with the drug dilutions. The microplates were incubated overnight for 24 h at 37 °C. [R4W4] was synthesized and purified, as reported earlier.

MRSA Clin 5 = test: microbe, parasite or virus in culture; format: cell-based, Staphylococcus aureus; settings: for MBC/MIC: MRSA Clin 5, lung isolate
Experimental: as §1

MRSA Clin 6 = test: microbe, parasite or virus in culture; format: cell-based, Staphylococcus aureus; settings: for MBC/MIC: MRSA Clin 6, lung isolate
Experimental: as §1

MRSA LAC = test: microbe, parasite or virus in culture; format: cell-based, Staphylococcus aureus; settings: for MBC/MIC: MRSA LAC, wound isolate
Experimental: as §1

MRSA Mec 1 = test: microbe, parasite or virus in culture; format: cell-based, Staphylococcus aureus; settings: for MBC/MIC: MRSA Mec 1, blood isolate
Experimental: as §1

MRSA Mec III = test: microbe, parasite or virus in culture; format: cell-based, Staphylococcus aureus; settings: for MBC/MIC: MRSA Mec III, wound isolate
Experimental: as §1

MRSA Mec II = test: microbe, parasite or virus in culture; format: cell-based, Staphylococcus aureus; settings: for MBC/MIC: MRSA Mec II, blood isolate
Experimental: as §1

MRSA Mec IV = test: microbe, parasite or virus in culture; format: cell-based, Staphylococcus aureus; settings: for MBC/MIC: MRSA Mec IV, lung isolate
Experimental: as §1

MRSA Mec V = test: microbe, parasite or virus in culture; format: cell-based, Staphylococcus aureus; settings: for MBC/MIC: MRSA Mec V, wound isolate
Experimental: as §1

B. subtilis 21332 = test: microbe, parasite or virus in culture; format: cell-based, Bacillus subtilis; settings: for MBC/MIC: B. subtilis ATCC 21332
Experimental: as §1

MRSA LAC USA300 = test: Surface charge neutralization by zeta potential; format: cell-based, Staphylococcus aureus; settings: for zeta potential of MRSA after treatment: agent at 16 μg/mL (4 × MIC of [R4W4]), HEPES pH 7.4, 150 mM NaCl, 25 °C, mean of triplicate, untreated −31 ± 0.88 mV
Experimental: Stock cultures of the MRSA strain from −80 °C were inoculated on MHB agar plates at 37 °C overnight. Two isolated colonies were inoculated in 6 mL MHB broth and allowed to grow overnight with shaking at 225 rpm. A 100 µL bacteria aliquot was added to a 5 mL fresh MHB, and the suspension was incubated to grow for 2 h at 37 °C to achieve a final bacteria concentration of ~3 × 10^8 CFU/mL as (A 600 ~0.1). The bacterial suspension was diluted using fresh MHB to 3 × 10^5 CFU/mL. The bacterial suspension was centrifuged at 11,400× g for 10 min and washed twice using 10 mM HEPES buffer, pH 7.4, containing 150 mM NaCl (normal saline).
An amount of 100 µLs of test samples was added to 900 µL of the bacterial aliquots using a positive buffer without test samples.
Meanwhile, the Malvern Zetasizer Nano was set to read samples at 25 °C. The bacterial suspension was dispensed into disposable zeta cells with gold electrodes and allowed to equilibrate for 15 min at 25 °C. The zeta potential value for each sample was calculated from the measured value of electrophoretic mobility using the Smuluchowski equation.

MRSA USA300 = test: Membrane depolarization assay with DisC3(5); format: cell-based, Staphylococcus aureus
Experimental: Buffer A (5 mM HEPE and 5 mM glucose) and Buffer B (5 mM HEPE, 5 mM glucose, and 0.2 mM EDTA) solutions were prepared and filtered using 0.2 μm filters. Bacteria strains (MRSA and E. coli) from a −80 °C freezer were inoculated on an agar plate overnight. Two to three colonies of each bacteria strain were inoculated in 8 mL Cation-Adjusted Muller-Hinton Broth (CAMHB) and allowed to grow overnight. The overnight grown MRSA or E. coli bacteria was diluted with a fresh CAMHB (1:100) and incubated at 37 °C for 5 h with shaking at 220 rpm. The resulting bacteria cells at the growth phase were centrifuged at 3700× g at 4 °C for 10 min. The bacteria pellets were washed three times with buffer A and then resuspended in buffer A to an OD600nm of 0.05.
On the other hand, E. coli was resuspended in buffer B to an OD600nm of 0.05 to facilitate fluorescence dye DSC5 uptake. Then, 20 mL of each bacteria suspension was mixed with 10 μL of 100 μM dye in a dark place for 45 min. After incubation, potassium chloride was added to the two bacteria suspensions to a final concentration. […] The fluorescence intensity was measured at excitation and emission wavelengths of 622 nm and 670 nm, respectively.

[2] = Staphylococcus aureus, MRSA, 24 h

N=C(N)NCCC[C@@H]1NC(=O)[C@H](CCCNC(=N)N)NC(=O)[C@H](CCCNC(=N)N)NC(=O)[C@H](Cc2c[nH]c3ccccc23)NC(=O)[C@H](Cc2c[nH]c3ccccc23)NC(=O)[C@H](Cc2c[nH]c3ccccc23)NC(=O)[C@H](Cc2c[nH]c3ccccc23)NC(=O)[C@H](CCCNC(=N)N)NC1=O [[R4W4]] (cyclo(RRRRWWWW))
MBC/MIC ([1]; MRSA MU3, lung isolate): 2 | MBC ([1]; MRSA MU3, lung isolate, averages of triplicates of three different experiments): 32 µg/mL (≈ 23.4 µM) | MIC ([1]; vancomycin hetero-non-susceptible) MU3, 24 h): 16 µg/mL (≈ 11.7 µM) | MBC (MRSA Clin 5; Clin 5, 24 h): 32 µg/mL (≈ 23.4 µM) | MIC (MRSA Clin 5; Clin 5, 24 h): 16 µg/mL (≈ 11.7 µM) | MBC/MIC (MRSA Clin 5): 2 | MBC (MRSA Clin 6; Clin 6, 24 h): 32 µg/mL (≈ 23.4 µM) | MIC (MRSA Clin 6; Clin 6, 24 h): 32 µg/mL (≈ 23.4 µM) | MBC/MIC (MRSA Clin 6): 1 | MBC (MRSA LAC; LAC, 24 h): 16 µg/mL (≈ 11.7 µM) | MBC/MIC (MRSA LAC): 4 | MBC/MIC (MRSA Mec 1): 2 | MBC (MRSA Mec 1; Mec 1, 24 h): 4 µg/mL (≈ 2.92 µM) | MIC (MRSA Mec 1; Mec 1, 24 h): 2 µg/mL (≈ 1.46 µM) | MBC/MIC (MRSA Mec III): 2 | MBC (MRSA Mec III; Mec III, 24 h): 8 µg/mL (≈ 5.84 µM) | MIC (MRSA Mec III; Mec III, 24 h): 4 µg/mL (≈ 2.92 µM) | MBC/MIC (MRSA Mec II): 2 | MBC (MRSA Mec II; Mec II, 24 h): 8 µg/mL (≈ 5.84 µM) | MIC (MRSA Mec II; Mec II, 24 h): 4 µg/mL (≈ 2.92 µM) | MBC/MIC (MRSA Mec IV): 2 | MBC (MRSA Mec IV; Mec IV, 24 h): 64 µg/mL (≈ 46.7 µM) | MIC (MRSA Mec IV; Mec IV, 24 h): 32 µg/mL (≈ 23.4 µM) | MBC/MIC (MRSA Mec V): 4 | MBC (MRSA Mec V; Mec V, 24 h): 64 µg/mL (≈ 46.7 µM) | MIC (MRSA Mec V; Mec V, 24 h): 16 µg/mL (≈ 11.7 µM) | MBC (B. subtilis 21332; 21332, 24 h): 8 µg/mL (≈ 5.84 µM) | MIC (B. subtilis 21332; 21332, 24 h): 4 µg/mL (≈ 2.92 µM) | MBC/MIC (B. subtilis 21332): 2 | concentration required to achieve neutralization of negative surface charge (MRSA LAC USA300; 2 × MIC): 8 µg/mL | zeta potential of MRSA after treatment (MRSA LAC USA300): −8.37 mV | DisC3(5) fluorescence (membrane depolarization) (MRSA USA300; [R4W4] at 2 × MIC): fluorescence decreases below that of vancomycin and control | DisC3(5) fluorescence (membrane depolarization) (MRSA USA300; [R4W4] at 16 × MIC): enhanced fluorescence signal that surpassed that of nisin

CN[C@H](CC(C)C)C(=O)N[C@H]1C(=O)N[C@@H](CC(N)=O)C(=O)N[C@H]2C(=O)N[C@H]3C(=O)N[C@H](C(=O)N[C@H](C(=O)O)c4cc(O)cc(O)c4-c4cc3ccc4O)[C@H](O)c3ccc(c(Cl)c3)Oc3cc2cc(c3O[C@@H]2O[C@H](CO)[C@@H](O)[C@H](O)[C@H]2O[C@H]2C[C@](C)(N)[C@H](O)[C@H](C)O2)Oc2ccc(cc2Cl)[C@H]1O [Vancomycin, Vancomycin Hydrochloride, reference compound]
MBC/MIC ([1]; MRSA MU3, lung isolate): 1.5 | MBC ([1]; Staphylococcus aureus, MRSA): 3 µg/mL | MIC [1, 2]: 2 µg/mL | MBC/MIC (MRSA Clin 5): 1 | MBC (MRSA Clin 5; Staphylococcus aureus, MRSA): 2 µg/mL | MIC (MRSA Clin 5; [2]): 2 µg/mL | MBC/MIC (MRSA Clin 6): 4 | MBC (MRSA Clin 6; Staphylococcus aureus, MRSA): 8 µg/mL | MIC (MRSA Clin 6; [2]): 2 µg/mL | MBC/MIC (MRSA LAC): 2 | MBC (MRSA LAC; Staphylococcus aureus, MRSA): 2 µg/mL | MIC (MRSA LAC; [2]): 1 µg/mL | MBC/MIC (MRSA Mec 1): 2 | MBC (MRSA Mec 1; Staphylococcus aureus, MRSA): 2 µg/mL | MIC (MRSA Mec 1; [2]): 1 µg/mL | MBC/MIC (MRSA Mec III): 2 | MBC (MRSA Mec III; Staphylococcus aureus, MRSA): 2 µg/mL | MIC (MRSA Mec III; [2]): 1 µg/mL | MBC/MIC (MRSA Mec II): 2 | MBC (MRSA Mec II; Staphylococcus aureus, MRSA): 4 µg/mL | MIC (MRSA Mec II; [2]): 2 µg/mL | MBC/MIC (MRSA Mec IV): 4 | MBC (MRSA Mec IV; Staphylococcus aureus, MRSA): 8 µg/mL | MIC (MRSA Mec IV; [2]): 2 µg/mL | MBC/MIC (MRSA Mec V): 2 | MBC (MRSA Mec V; Staphylococcus aureus, MRSA): 4 µg/mL | MIC (MRSA Mec V; [2]): 2 µg/mL | MBC/MIC (B. subtilis 21332): 2 | MBC (B. subtilis 21332; Bacillus subtilis, ATCC21332): 0.5 µg/mL | MIC (B. subtilis 21332; Bacillus subtilis, ATCC21332, 24 h): 0.25 µg/mL | zeta potential of MRSA after treatment (MRSA LAC USA300): −33.03 mV | DisC3(5) fluorescence versus control (MRSA USA300; controls at 100 µg/mL): no significant difference

From paper PMC11201061, “Mechanistic Study of Antimicrobial Effectiveness of Cyclic Amphipathic Peptide [R4W4] against Methicillin-Resistant Staphylococcus aureus Clinical Isolates” (Antibiotics, 2024)
